Results from patent publication US8937038B2, “Composition containing peptide ligand that bonds with CXCR2 for treating infective and inflammatory diseases” (priority 2010, dated 2015).
Where no end group is shown, it is not given here. The star is where a group is joined. Palmitoyl = CCCCCCCCCCCCCCCC(=O)*

Columns and labels:
[1] = test system: mouse neutrophils; test: H2O2 production in mouse neutrophils; format: cell-based; conditions: neutrophils pretreated with SB225002 30 minutes, then Ac-PGP 20 μM; FIG. 13
Protocol: Mouse neutrophils were separated from peripheral blood using a Histopaque-1077 solution (Sigma) (Bae Y S et al. 2001 Blood. 97: 2854-2862). The neutrophils separated from normal mice were stimulated with various concentrations of Ac-PGP for 10 minutes in the presence of cytochalasin B (5 μM). To identify the role of mCXCR2, the neutrophils were pre-incubated in various concentrations of SB225002 or a vehicle (DMSO) for 30 minutes in a stationary environment, and Ac-PGP (20 μM) was added, and incubated for 10 minutes. H2O2 in a supernatant was measured using a H2O2 measurement kit (Molecular probe).
A death rate by CLP is correlated with the number of bacterial colonies in a peritoneal fluid. Therefore, an effect of the Ac-PGP on removal of bacteria in a peritoneal fluid was examined. […] In vitro disinfection activity of the Ac-PGP was examined using neutrophils derived from a mouse. The mouse neutrophils were kept for an hour to phagocytize E. coli, and then stimulated with various concentrations of Ac-PGP (0.1 to 100 nM) for 20 minutes. […] A reactive oxygen species such as hydrogen peroxide was known as an important molecule participating in the disinfection activity. Therefore, an effect of Ac-PGP on production of hydrogen peroxide in the mouse neutrophils was examined. […]

[2] = test system: PBMCs; test: Cytokine production by LPS-stimulated human PBMCs; format: cell-based; conditions: human PBMCs stimulated with LPS
Text: (§1) All kinds of protocols used in human beings were approved by the Institutional Review Board (IRB) at Dong-A University Hospital, and prior consents were obtained from all blood donors. Peripheral blood was collected from healthy donors, and human peripheral monocytes were separated using a Histopaque-1077 gradient. Neutrophils were separated through methods such as dextran precipitation of red blood cell, hypotonic lysis, and usage of lymphocyte isolation medium gradient, as known in the related art (Bae, Y. S. et al. Blood 97, 2854-2862(2001)). The separated human leukocytes were used immediately.
(§2) Next, an effect of the Ac-PGP on production of cytokines by human neutrophils and PBMCs was examined. […] A human CXCR2 chemokine agonist CXCL8 had few effects on production of TNF-α or IFN-γ stimulated with LPS (FIG. 28 to FIG. 31). Therefore, the Ac-PGP could improve both antiseptic activities in leukocytes derived from human beings and mice.

[3] = test system: human neutrophils; test: Cytokine production by LPS-stimulated human neutrophils; format: cell-based; conditions: human neutrophils stimulated with LPS
Text: as §1, §2

[4] = test system: cecal ligation and puncture (CLP)-septic mice; conditions: Kuliopulos et al.; cited from earlier work
[5] = test system: mouse splenocytes; test: Cytokine release from LPS-stimulated mouse splenocytes (ELISA); format: cell-based; conditions: LPS 100 ng/ml
Protocol: Mouse splenocytes were positioned on an RPMI 1640 medium including 5% FBS in a 96-well plate, and maintained at 37° C. in a 5% CO2 incubator. Thereafter, the splenocytes were stationarily incubated with LPS (100 ng/ml) for 24 hours in the presence or absence of Ac-PGP. After 30 minutes, LPS was added to the cells and collected a cell-free supernatant, and then the supernatant was centrifuged, and TNF-α, IL-6 and IFN-γ were measured using ELISA (BD Biosciences Pharmingen). In regards to the effect of IFN-γ on production of pro-inflammatory cytokines induced by LPS, 5×10^5 cells/ml of the mouse splenocytes were stimulated with 100 ng/ml of LPS in the presence or absence IFN-γ (R&D) (at various concentrations of 1, 10, 100 and 1,000 IU/ml). Amounts of TNF-α and IL-6 were measured 20 hours after stationary incubation using ELISA (BD Biosciences Pharmingen).
An effect of the Ac-PGP on a pro-inflammatory cytokine in a peritoneal fluid by CLP was determined from 4 to 72 hours after the CLP. The CLP induced a remarkable increase in levels of pro-inflammatory cytokines (TNF-α, IL-1β and IL-6) within 24 hours (FIGS. 14 to 16). Injection of the Ac-PGP in a sepsis model by the CLP induced a remarkable change in levels of the cytokines. […] To evaluate an effect of the Ac-PGP on production of the pro-inflammatory cytokines by the LPS, in vitro production of TNF-α and IL-6 by the mouse splenocytes was evaluated. Direct release of the TNF-α and IL-6 from the mouse splenocytes by the LPS was suppressed by in vitro treatment with the Ac-PGP (FIGS. 17 and 18).
Since it was confirmed that the administration of the Ac-PGP improved in vivo production of IFN-γ, a direct effect of the Ac-PGP on production of IFN-γ by splenocytes was examined. […] Also, an effect of IFN-γ on production of the pro-inflammatory cytokines was also examined.

Molecule: O=C(Nc1ccc([N+](=O)[O-])cc1O)Nc1ccccc1Br [SB225002, reference compound]
- production of hydrogen peroxide by the Ac-PGP [1]: completely suppressed

Molecule: CXCL8: human CXCR2 chemokine agonist
- production of TNF-α ([2]; FIG. 29): few effects
- production of IFN-γ ([2]; FIG. 31): few effects
- production of TNF-α ([3]; FIG. 28): few effects
- production of IFN-γ ([3]; FIG. 30): few effects

Molecule: pal-RTLFKAHMGQKHR (Palmitoyl-RTLFKAHMGQKHR) [x1/2pal-3]
- survival rate [4]: remarkable increase in survival rate

B1: KC: counterpart of mouse IL-8; mouse chemokine activating CXCR2 (protein, UniProt P12850 25-96, looked up)
Growth-regulated alpha protein: APIANELRCQCLQTMAGIHLKNIQSLKVLPSGPHCTQTEVIATLKNGREACLDPEAPLVQKIVQKMLKGVPK
- release of TNF-α by LPS ([5]; 24 hours, FIG. 17): could not suppress
- release of IL-6 by LPS ([5]; 24 hours, FIG. 18): could not suppress

B2: IFN-γ: type 1 cytokine (R&D) added to mouse splenocytes at 1 to 1,000 IU/ml (protein, UniProt P01580 23-155, looked up)
Interferon gamma: HGTVIESLESLNNYFNSSGIDVEEKSLFLDIWRNWQKDGDMKILQSQIISFYLRLFEVLKDNQAISNNISVIESHLITTFFSNSKAKKDAFMSIAKFEVNNPQVQRQAFNELIRVVHQLLPESSLRKRKRSRC
- production of TNF-α by LPS ([5]; 5×10^5 cells/ml, IFN-γ 1, 10, 100 and 1,000 IU/ml, 20 hours, FIG. 25): relieved production
- production of IL-6 by LPS ([5]; 5×10^5 cells/ml, IFN-γ 1, 10, 100 and 1,000 IU/ml, 20 hours, FIG. 26): relieved production
